Test results reported in the supplement of paper PMC13207355.
Where a name gives a salt, the structure may show the parent alone.

Experiments:
Conditions in all cases: exposure time: 72 h
[1] = tested on: E34 (patient-derived glioblastoma stem cells of proneural subtype); test: phenotypic distance (Euclidean, principal components) from DMSO controls (arbitrary units); higher = stronger morphological change
[2] = tested on: E31 (patient-derived glioblastoma stem cells of proneural subtype); test: as above
[3] = tested on: FT3469 (normal neural stem cell line); test: as above
[4] = tested on: E28 (patient-derived glioblastoma stem cells of classical subtype); test: as above
[5] = tested on: E13 (patient-derived glioblastoma stem cells of classical subtype); test: as above
[6] = tested on: E57 (patient-derived glioblastoma stem cells of mesenchymal subtype); test: as above
[7] = tested on: E21 (patient-derived glioblastoma stem cells of mesenchymal subtype); test: as above
[8] = tested on: E34; test: surviving fraction (nuclei count normalised to DMSO); higher = more cells surviving (less toxic)
[9] = tested on: E31; test: as above
[10] = tested on: FT3469; test: as above
[11] = tested on: E28; test: as above
[12] = tested on: E13; test: as above
[13] = tested on: E57; test: as above
[14] = tested on: E21; test: as above
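For phenotypic distance (Euclidean, principal components) from DMSO controls in this document: cell Painting imaging in 384-well plates, CellProfiler features reduced to at least 20 principal components, Euclidean distance versus same-plate DMSO vehicle wells (0.1% v/v), median over six images per well.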
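For surviving fraction (nuclei count normalised to DMSO) in this document: nuclei counted by high-content imaging of Hoechst-stained cells in laminin-coated 384-well plates, relative to 0.1% DMSO vehicle wells, with staurosporine as cell-death control.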

C=CC(=O)Nc1cc(Nc2nccc(-c3cn(C)c4ccccc34)n2)c(OC)cc1N(C)CCN(C)C [Osimertinib mesylate]
Conditions	phenotypic distance	surviving fraction
[1], 4.1 nM	0.472	–
[1], 12.3 nM	0.514	–
[1], 37 nM	0.843	–
[1], 111.1 nM	0.747	–
[1], 333.3 nM	1.66	–
[1], 1000 nM	0.95	–
[1], 3000 nM	1.31	–
[2], 4.1 nM	0.452	–
[2], 12.3 nM	0.55	–
[2], 37 nM	1.12	–
[2], 111.1 nM	0.652	–
[2], 333.3 nM	0.826	–
[2], 1000 nM	1.22	–
[2], 3000 nM	2.48	–
[3], 4.1 nM	0.624	–
[3], 12.3 nM	0.753	–
[3], 37 nM	0.623	–
[3], 111.1 nM	0.801	–
[3], 333.3 nM	0.702	–
[3], 1000 nM	1.37	–
[3], 3000 nM	1.12	–
[4], 4.1 nM	0.567	–
[4], 12.3 nM	0.684	–
[4], 37 nM	0.633	–
[4], 111.1 nM	1.15	–
[4], 333.3 nM	0.864	–
[4], 1000 nM	1.16	–
[4], 3000 nM	2.16	–
[5], 4.1 nM	0.974	–
[5], 12.3 nM	0.598	–
[5], 37 nM	0.826	–
[5], 111.1 nM	0.647	–
[5], 333.3 nM	1.84	–
[5], 1000 nM	1.28	–
[5], 3000 nM	2.96	–
[6], 4.1 nM	0.541	–
[6], 12.3 nM	0.746	–
[6], 37 nM	0.59	–
[6], 111.1 nM	1.02	–
[6], 333.3 nM	1.3	–
[6], 1000 nM	1.38	–
[6], 3000 nM	3.02	–
[7], 4.1 nM	0.814	–
[7], 12.3 nM	0.422	–
[7], 37 nM	1.04	–
[7], 111.1 nM	0.922	–
[7], 333.3 nM	1.1	–
[7], 1000 nM	1.12	–
[7], 3000 nM	4.6	–
[8], 4.1 nM	–	0.904
[8], 12.3 nM	–	0.975
[8], 37 nM	–	0.973
[8], 111.1 nM	–	0.878
[8], 333.3 nM	–	1.13
[8], 1000 nM	–	0.996
[8], 3000 nM	–	0.702
[9], 4.1 nM	–	0.963
[9], 12.3 nM	–	0.947
[9], 37 nM	–	1.02
[9], 111.1 nM	–	0.92
[9], 333.3 nM	–	0.743
[9], 1000 nM	–	0.773
[9], 3000 nM	–	0.435
[10], 4.1 nM	–	0.963
[10], 12.3 nM	–	0.989
[10], 37 nM	–	1.02
[10], 111.1 nM	–	1.03
[10], 333.3 nM	–	0.843
[10], 1000 nM	–	1.07
[10], 3000 nM	–	0.638
[11], 4.1 nM	–	0.973
[11], 12.3 nM	–	1.04
[11], 37 nM	–	0.86
[11], 111.1 nM	–	1.01
[11], 333.3 nM	–	0.864
[11], 1000 nM	–	0.922
[11], 3000 nM	–	0.496
[12], 4.1 nM	–	0.883
[12], 12.3 nM	–	1
[12], 37 nM	–	0.978
[12], 111.1 nM	–	0.951
[12], 333.3 nM	–	1.03
[12], 1000 nM	–	0.935
[12], 3000 nM	–	0.547
[13], 4.1 nM	–	0.979
[13], 12.3 nM	–	0.953
[13], 37 nM	–	0.84
[13], 111.1 nM	–	0.864
[13], 333.3 nM	–	0.875
[13], 1000 nM	–	0.79
[13], 3000 nM	–	0.547
[14], 4.1 nM	–	1.11
[14], 12.3 nM	–	0.955
[14], 37 nM	–	0.892
[14], 111.1 nM	–	1.05
[14], 333.3 nM	–	0.931
[14], 1000 nM	–	0.909
[14], 3000 nM	–	0.455

NC1CCN(c2nc3c(cc2F)c(=O)c(C(=O)O)cn3-c2ccc(F)cc2F)C1 (centres undefined) [Tosufloxacin hydrochloride]
Conditions	phenotypic distance	surviving fraction
[1], 4.1 nM	0.608	–
[1], 12.3 nM	0.861	–
[1], 37 nM	0.802	–
[1], 111.1 nM	0.784	–
[1], 333.3 nM	0.625	–
[1], 1000 nM	0.557	–
[1], 3000 nM	0.971	–
[2], 4.1 nM	0.809	–
[2], 12.3 nM	0.633	–
[2], 37 nM	0.706	–
[2], 111.1 nM	0.608	–
[2], 333.3 nM	0.538	–
[2], 1000 nM	0.815	–
[2], 3000 nM	0.521	–
[3], 4.1 nM	0.676	–
[3], 12.3 nM	0.401	–
[3], 37 nM	0.584	–
[3], 111.1 nM	0.591	–
[3], 333.3 nM	3.26	–
[3], 1000 nM	0.468	–
[3], 3000 nM	0.933	–
[4], 4.1 nM	3.44	–
[4], 12.3 nM	0.615	–
[4], 37 nM	0.624	–
[4], 111.1 nM	0.684	–
[4], 333.3 nM	0.493	–
[4], 1000 nM	0.455	–
[4], 3000 nM	0.886	–
[5], 4.1 nM	0.747	–
[5], 12.3 nM	0.689	–
[5], 37 nM	0.471	–
[5], 111.1 nM	0.593	–
[5], 333.3 nM	0.883	–
[5], 1000 nM	0.502	–
[5], 3000 nM	0.704	–
[6], 4.1 nM	0.751	–
[6], 12.3 nM	0.527	–
[6], 37 nM	0.691	–
[6], 111.1 nM	0.438	–
[6], 333.3 nM	0.382	–
[6], 1000 nM	0.743	–
[6], 3000 nM	0.801	–
[7], 4.1 nM	0.748	–
[7], 12.3 nM	0.836	–
[7], 37 nM	0.56	–
[7], 111.1 nM	0.309	–
[7], 333.3 nM	0.495	–
[7], 1000 nM	0.751	–
[7], 3000 nM	0.725	–
[8], 4.1 nM	–	0.948
[8], 12.3 nM	–	0.869
[8], 37 nM	–	0.977
[8], 111.1 nM	–	0.985
[8], 333.3 nM	–	0.916
[8], 1000 nM	–	1.03
[8], 3000 nM	–	0.856
[9], 4.1 nM	–	0.78
[9], 12.3 nM	–	0.861
[9], 37 nM	–	0.987
[9], 111.1 nM	–	0.892
[9], 333.3 nM	–	1.06
[9], 1000 nM	–	0.836
[9], 3000 nM	–	0.849
[10], 4.1 nM	–	0.927
[10], 12.3 nM	–	0.952
[10], 37 nM	–	1.13
[10], 111.1 nM	–	0.908
[10], 333.3 nM	–	0.964
[10], 1000 nM	–	0.96
[10], 3000 nM	–	0.913
[11], 4.1 nM	–	0.969
[11], 12.3 nM	–	1.18
[11], 37 nM	–	0.9
[11], 111.1 nM	–	1.12
[11], 333.3 nM	–	0.975
[11], 1000 nM	–	1.01
[11], 3000 nM	–	0.898
[12], 4.1 nM	–	0.947
[12], 12.3 nM	–	1.13
[12], 37 nM	–	0.977
[12], 111.1 nM	–	1.05
[12], 333.3 nM	–	1.01
[12], 1000 nM	–	1
[12], 3000 nM	–	1.04
[13], 4.1 nM	–	1.03
[13], 12.3 nM	–	1.03
[13], 37 nM	–	1
[13], 111.1 nM	–	1.06
[13], 333.3 nM	–	0.946
[13], 1000 nM	–	1.09
[13], 3000 nM	–	0.903
[14], 4.1 nM	–	0.969
[14], 12.3 nM	–	1.06
[14], 37 nM	–	1.02
[14], 111.1 nM	–	0.964
[14], 333.3 nM	–	0.988
[14], 1000 nM	–	0.989
[14], 3000 nM	–	0.906

CC(NCCC(c1ccccc1)c1ccccc1)c1ccccc1 (centres undefined) [Fendiline hydrochloride]
Conditions	phenotypic distance	surviving fraction
[1], 4.1 nM	0.542	–
[1], 12.3 nM	0.85	–
[1], 37 nM	0.586	–
[1], 111.1 nM	0.878	–
[1], 333.3 nM	0.354	–
[1], 1000 nM	0.817	–
[1], 3000 nM	0.823	–
[2], 4.1 nM	0.374	–
[2], 12.3 nM	0.903	–
[2], 37 nM	0.419	–
[2], 111.1 nM	0.715	–
[2], 333.3 nM	0.436	–
[2], 1000 nM	0.581	–
[2], 3000 nM	1.24	–
[3], 4.1 nM	0.761	–
[3], 12.3 nM	0.264	–
[3], 37 nM	0.282	–
[3], 111.1 nM	0.794	–
[3], 333.3 nM	0.524	–
[3], 1000 nM	1.26	–
[3], 3000 nM	0.835	–
[4], 4.1 nM	0.507	–
[4], 12.3 nM	0.605	–
[4], 37 nM	0.415	–
[4], 111.1 nM	0.773	–
[4], 333.3 nM	0.762	–
[4], 1000 nM	0.645	–
[4], 3000 nM	0.861	–
[5], 4.1 nM	1.49	–
[5], 12.3 nM	0.566	–
[5], 37 nM	0.415	–
[5], 111.1 nM	1.15	–
[5], 333.3 nM	0.412	–
[5], 1000 nM	0.615	–
[5], 3000 nM	1.21	–
[6], 4.1 nM	0.595	–
[6], 12.3 nM	0.626	–
[6], 37 nM	0.661	–
[6], 111.1 nM	0.669	–
[6], 333.3 nM	0.423	–
[6], 1000 nM	0.376	–
[6], 3000 nM	0.679	–
[7], 4.1 nM	0.402	–
[7], 12.3 nM	0.709	–
[7], 37 nM	0.475	–
[7], 111.1 nM	0.445	–
[7], 333.3 nM	0.634	–
[7], 1000 nM	0.668	–
[7], 3000 nM	0.648	–
[8], 4.1 nM	–	1.02
[8], 12.3 nM	–	0.952
[8], 37 nM	–	0.969
[8], 111.1 nM	–	0.959
[8], 333.3 nM	–	1.07
[8], 1000 nM	–	0.954
[8], 3000 nM	–	1.09
[9], 4.1 nM	–	1.09
[9], 12.3 nM	–	0.954
[9], 37 nM	–	0.955
[9], 111.1 nM	–	1.02
[9], 333.3 nM	–	0.968
[9], 1000 nM	–	0.988
[9], 3000 nM	–	1.15
[10], 4.1 nM	–	0.944
[10], 12.3 nM	–	0.918
[10], 37 nM	–	0.939
[10], 111.1 nM	–	1.11
[10], 333.3 nM	–	0.92
[10], 1000 nM	–	1.28
[10], 3000 nM	–	0.989
[11], 4.1 nM	–	0.897
[11], 12.3 nM	–	1.08
[11], 37 nM	–	0.956
[11], 111.1 nM	–	1.12
[11], 333.3 nM	–	0.967
[11], 1000 nM	–	1.08
[11], 3000 nM	–	1.04
[12], 4.1 nM	–	0.853
[12], 12.3 nM	–	0.993
[12], 37 nM	–	0.984
[12], 111.1 nM	–	0.898
[12], 333.3 nM	–	1.03
[12], 1000 nM	–	1.1
[12], 3000 nM	–	0.976
[13], 4.1 nM	–	0.982
[13], 12.3 nM	–	1.03
[13], 37 nM	–	1.01
[13], 111.1 nM	–	1.08
[13], 333.3 nM	–	1.07
[13], 1000 nM	–	1.04
[13], 3000 nM	–	1.09
[14], 4.1 nM	–	1.03
[14], 12.3 nM	–	0.876
[14], 37 nM	–	0.962
[14], 111.1 nM	–	0.95
[14], 333.3 nM	–	1.01
[14], 1000 nM	–	0.962
[14], 3000 nM	–	0.961
